These are literature values, as cited in US20040018954A1, “Composition of menthol and menthyl lactate, its preparation method and its applications as a cooling agent” (priority 2002, published 2004).

SMILES strings stand for the structures.

For the data set the following is noted: manufacturer's product literature.

As for `CC1CCC(C(C)C)C(OC(=O)C(C)O)C1` (centres unmarked) [Frescolat ML, menthyl lactate], the solubility entry is “oil soluble” and the “stable in the pH range” value is on record as 4-8.
